Values after ≈ are worked out from the molar mass of the structure shown.
Experiments:
Assay type in all cases: functional
Phytophthora infestans = test: Fungicidal activity against Phytophthora infestans
Plasmopara viticola = test: Fungicidal activity against Plasmopara viticola
Abutilon theophrasti = test: Post-emergence herbicidal activity against Abutilon theophrasti (velvetleaf)
Echinochloa crus-galli = test: Post-emergence herbicidal activity against Echinochloa crus-galli (barnyard grass)
Digitaria sanguinalis = test: Post-emergence herbicidal activity against Digitaria sanguinalis (hairy crabgrass)
Ipomoea purpurea = test: Post-emergence herbicidal activity against Ipomoea purpurea (common morning-glory)
Setaria viridis = test: Post-emergence herbicidal activity against Setaria viridis (green foxtail)

SMILES | EC80 (Phytophthora infestans) [µg/mL] | EC80 (Plasmopara viticola) [µg/mL] | ED85 (Abutilon theophrasti) [g/ha] | ED85 (Echinochloa crus-galli) [g/ha] | ED85 (Digitaria sanguinalis) [g/ha] | ED85 (Ipomoea purpurea) [g/ha] | ED85 (Setaria viridis) [g/ha]
CCC#CCOc1ccc(CCNC(=O)[C@H](CCC(=O)O)NS(C)(=O)=O)cc1OC | > 200 | > 200 | – | – | – | – | –
CCC#CCOc1ccc(CCNC(=O)[C@@H](NS(C)(=O)=O)C(C)C)cc1OC | 8 (≈ 19.5 µM) | 2 (≈ 4.87 µM) | – | – | – | – | –
CCC#CCOc1ccc(CCNC(=O)[C@H](CC(C)C)NS(C)(=O)=O)cc1OC | 12 (≈ 28.3 µM) | 18 (≈ 42.4 µM) | – | – | – | – | –
CCn1nnc2ccc(Oc3c(F)cc(C(F)(F)F)cc3Cl)cc21 | – | – | <32 | >500 | >500 | <32 | >500
C#CCn1nnc2ccc(Oc3c(F)cc(C(F)(F)F)cc3Cl)cc21 | – | – | 250 | 250 | 500 | <32 | 63
CCC#CCOc1ccc(CCNC(=O)CNS(C)(=O)=O)cc1OC | 148 (≈ 402 µM) | > 200 | – | – | – | – | –
CC(C(N)=O)n1nnc2ccc(Oc3c(F)cc(C(F)(F)F)cc3Cl)cc21 (centres undefined) | – | – | <32 | 125 | 63 | <32 | 63
Fc1cc(C(F)(F)F)cc(Cl)c1Oc1ccc2nn[nH]c2c1 | – | – | 250 | >500 | 250 | <32 | >500
CCC#CCOc1ccc(CCNC(=O)[C@H](C)NS(C)(=O)=O)cc1OC | > 200 | > 200 | – | – | – | – | –
CCC#CCOc1ccc(CCNC(=O)[C@H](CCC)NS(C)(=O)=O)cc1OC | 60 (≈ 146 µM) | 20 (≈ 48.7 µM) | – | – | – | – | –
COC(=O)CCn1nnc2ccc(Oc3c(F)cc(C(F)(F)F)cc3Cl)cc21 | – | – | <32 | 125 | <32 | <32 | 250
CCC#CCOc1ccc(CCNC(=O)C(NS(C)(=O)=O)c2ccc(Cl)cc2)cc1OC (racemic) | 20 (≈ 41.8 µM) | 15 (≈ 31.3 µM) | – | – | – | – | –
CCC#CCOc1ccc(CCNC(=O)[C@@H](NS(C)(=O)=O)[C@@H](C)O)cc1OC | 148 (≈ 359 µM) | 109 (≈ 264 µM) | – | – | – | – | –
CC(C(=O)O)n1nnc2ccc(Oc3c(F)cc(C(F)(F)F)cc3Cl)cc21 (centres undefined) | – | – | 1 | 4 | 8 | <0.5 | 1
COC(=O)Cn1nnc2ccc(Oc3c(F)cc(C(F)(F)F)cc3Cl)cc21 | – | – | >8 | 4 | >8 | 0.5 | 2
CCC#CCOc1ccc(CCNC(=O)[C@@H](NS(C)(=O)=O)[C@@H](C)CC)cc1OC | 3 (≈ 7.07 µM) | 2 (≈ 4.71 µM) | – | – | – | – | –
CCC#CCOc1ccc(CCNC(=O)[C@H](CCSC)NS(C)(=O)=O)cc1OC | > 200 | > 200 | – | – | – | – | –
COC(=O)[C@H](C)n1nnc2ccc(Oc3c(F)cc(C(F)(F)F)cc3Cl)cc21 | – | – | <32 | 63 | 125 | <32 | 125
CCC#CCOc1ccc(CCNC(=O)C(NS(C)(=O)=O)C(CC)CC)cc1OC (racemic) | 16 (≈ 36.5 µM) | 16 (≈ 36.5 µM) | – | – | – | – | –
C=CCC(NS(C)(=O)=O)C(=O)NCCc1ccc(OCC#CCC)c(OC)c1 (racemic) | 9 (≈ 22 µM) | 49 (≈ 120 µM) | – | – | – | – | –

Source: ChEMBL document CHEMBL3045538, “Amino acid chemistry in crop protection” (2010)
